From ChEMBL document CHEMBL4014354, “2'-Chloro,2'-fluoro Ribonucleotide Prodrugs with Potent Pan-genotypic Activity against Hepatitis C Virus Replication in Culture” (J Med Chem, 2017)

Assays:
[1] = target: Cytochrome P450 2D6 (Homo sapiens, UniProt P10635); assay: Inhibition of human CYP2D6 using quinidine […]; format: ADME
[2] = tested on: nuclear DNA levels; assay: in vitro; conditions: human, HepG2 cells
[3] = Cytotoxicity against human HuH7 cells assessed as inhibition of cell proliferation after 4 days by MTS assay; format: cell-based, Huh-7
[4] = Prodrug conversion in human HuH7 cells assessed as increase in nucleoside 5' triphosphate levels at 50 uM after 4 hrs by LC-MS/MS analysis relative to sofosbuvir; format: ADME, cell-based; conditions: huh-7, 4 h
[5] = tested on: Hepatitis C virus; assay: Antiviral activity against HCV genotype 1b harboring wild type NS5B infected in human HuH7 cells assessed as inhibition of viral RNA replication after 5 days by RT-PCR method; format: functional, cell-based, Hepacivirus hominis; conditions: Huh-7, 120 h
[6] = in vitro; conditions: human, liver microsomes
Description: Half life in human liver microsomes at 1 uM by LC-MS/MS analysis

[7] = Prodrug conversion in human primary hepatocytes assessed as increase in nucleoside 5' triphosphate levels at 50 uM after 4 hrs by LC-MS/MS analysis relative to sofosbuvir; format: ADME, cell-based, Hepatocyte
[8] = tested on: Hepatitis C virus; assay: Antiviral activity against HCV genotype 2b infected in human HuH7 cells assessed as inhibition of viral RNA replication after 96 hrs by RT-PCR method; format: functional, cell-based, Hepacivirus hominis; conditions: Huh-7, 96 h
[9] = tested on: HepG2; assay: Mitochondrial toxicity in human HepG2 cells assessed as cytochrome c oxidase subunit 2 DNA levels at 50 uM measured on day 14 by RT-PCR method relative to nuclear beta-actin DNA levels; format: cell-based; conditions: hepg2, 50 µM
[10] = tested on: Hepatitis C virus; assay: Antiviral activity against HCV genotype 1b infected in human HuH7 cells assessed as inhibition of viral RNA replication after 96 hrs by RT-PCR method; format: functional, cell-based, Hepacivirus hominis; conditions: Huh-7, 96 h
[11] = tested on: Hepatitis C virus; assay: Antiviral activity against HCV genotype 2a/k infected in human HuH7 cells assessed as inhibition of viral RNA replication after 96 hrs by RT-PCR method; format: functional, cell-based, Hepacivirus hominis; conditions: Huh-7, 96 h
[12] = Cytotoxicity against human CEM cells assessed as inhibition of cell proliferation after 4 days by MTT assay; format: cell-based, CCRF-CEM
[13] = tested on: cytochrome c oxidase subunit 2 DNA (mitochondrial DNA) levels; assay: in vitro; conditions: human, HepG2 cells
[14] = in vitro; conditions: human, liver microsomes; remark: listed apart in the source
Description: Clearance in human liver microsomes at 1 uM by LC-MS/MS analysis

[15] = tested on: HepG2; assay: Mitochondrial toxicity in human HepG2 cells assessed as lactic acid production at 50 uM measured on day 14 by spectrophotometric method relative to control; format: cell-based; conditions: hepg2, 50 µM
[16] = tested on: Hepatitis C virus; assay: Antiviral activity against HCV genotype 4 infected in human HuH7 cells assessed as inhibition of viral RNA replication after 96 hrs by RT-PCR method; format: functional, cell-based, Hepacivirus hominis; conditions: genotype 4, Huh-7, 96 h
[17] = tested on: Hepatitis C virus; assay: Antiviral activity against HCV genotype 3a infected in human HuH7 cells assessed as inhibition of viral RNA replication after 96 hrs by RT-PCR method; format: functional, cell-based, Hepacivirus hominis; conditions: Huh-7, 96 h
[18] = tested on: Hepatitis C virus; assay: Antiviral activity against HCV genotype 1b harboring NS5B S282T mutant infected in human HuH7 cells assessed as inhibition of viral RNA replication after 4 days by luciferase reporter gene assay; format: functional, cell-based, Hepacivirus hominis; conditions: Huh-7, 96 h
[19] = Half life in human intestinal microsomes; format: ADME, Intestine, Microsome
[20] = tested on: cytochrome c oxidase subunit 2 DNA (mitochondrial DNA) levels; assay: Mitochondrial toxicity in human HepG2 cells assessed as inhibition of cytochrome c oxidase subunit 2 DNA levels measured on day 14 by RT-PCR method; format: cell-based
[21] = target: Cytochrome P450 3A4 (Homo sapiens, UniProt P08684); assay: Inhibition of human CYP3A4 using ketoconazole […]; format: ADME
Chain of Cytochrome P450 3A4 (P08684 whole entry): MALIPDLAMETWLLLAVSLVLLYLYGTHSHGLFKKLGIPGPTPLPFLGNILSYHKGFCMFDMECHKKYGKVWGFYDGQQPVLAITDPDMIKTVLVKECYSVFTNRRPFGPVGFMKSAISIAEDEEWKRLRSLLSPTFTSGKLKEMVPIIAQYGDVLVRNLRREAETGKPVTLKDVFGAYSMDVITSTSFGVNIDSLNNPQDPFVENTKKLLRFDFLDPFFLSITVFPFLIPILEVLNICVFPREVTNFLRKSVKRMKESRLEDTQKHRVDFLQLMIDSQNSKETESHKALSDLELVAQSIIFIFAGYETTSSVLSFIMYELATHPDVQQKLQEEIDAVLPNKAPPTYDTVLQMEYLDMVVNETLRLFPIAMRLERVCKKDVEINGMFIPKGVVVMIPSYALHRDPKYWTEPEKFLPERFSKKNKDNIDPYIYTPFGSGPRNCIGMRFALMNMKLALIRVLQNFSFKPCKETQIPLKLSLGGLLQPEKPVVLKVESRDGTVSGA

[22] = tested on: Hepatitis C virus; assay: Selectivity ratio of EC50 for HCV genotype 1b harboring NS5B S282T mutant to EC50 for HCV genotype 1b harboring wild type NS5B; format: functional, Hepacivirus hominis
[23] = Metabolic stability in human blood assessed as compound remaining at 2 uM after 2 hrs by LC-MS/MS method; format: ADME, tissue-based; conditions: read-out: Stability
[24] = Metabolic stability in human intestinal microsomes assessed as compound remaining after 60 mins; format: ADME, Intestine, Microsome; conditions: read-out: Stability
[25] = tested on: HepG2; assay: Mitochondrial toxicity in human HepG2 cells assessed as cytochrome c oxidase subunit 2 DNA levels at 10 uM measured on day 14 by RT-PCR method relative to nuclear beta-actin DNA levels; conditions: hepg2, 10 µM
[26] = target: T1, Cytochrome P450 1A2 (Homo sapiens, UniProt P05177); assay: Inhibition of human CYP1A2 using alpha-naphthoflavone […]; format: ADME
T1 sequence (P05177 whole entry): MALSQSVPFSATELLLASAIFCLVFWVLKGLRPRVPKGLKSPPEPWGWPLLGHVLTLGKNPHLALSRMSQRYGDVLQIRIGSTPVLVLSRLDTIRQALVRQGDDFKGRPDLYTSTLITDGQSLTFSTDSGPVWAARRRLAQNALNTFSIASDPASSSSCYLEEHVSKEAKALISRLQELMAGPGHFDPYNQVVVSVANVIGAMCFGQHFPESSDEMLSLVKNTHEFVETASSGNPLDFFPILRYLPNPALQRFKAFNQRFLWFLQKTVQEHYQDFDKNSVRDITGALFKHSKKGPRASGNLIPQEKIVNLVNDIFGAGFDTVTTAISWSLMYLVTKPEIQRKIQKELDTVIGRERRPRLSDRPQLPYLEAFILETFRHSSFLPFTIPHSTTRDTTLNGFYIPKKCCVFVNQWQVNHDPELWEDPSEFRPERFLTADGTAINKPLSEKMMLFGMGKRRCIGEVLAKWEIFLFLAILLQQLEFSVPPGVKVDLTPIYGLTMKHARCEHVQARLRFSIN

[27] = target: Cytochrome P450 2C9 (Homo sapiens, UniProt P11712); assay: Inhibition of human CYP2C9 using sulfaphenazole […]; format: ADME
Chain of Cytochrome P450 2C9 (P11712 whole entry): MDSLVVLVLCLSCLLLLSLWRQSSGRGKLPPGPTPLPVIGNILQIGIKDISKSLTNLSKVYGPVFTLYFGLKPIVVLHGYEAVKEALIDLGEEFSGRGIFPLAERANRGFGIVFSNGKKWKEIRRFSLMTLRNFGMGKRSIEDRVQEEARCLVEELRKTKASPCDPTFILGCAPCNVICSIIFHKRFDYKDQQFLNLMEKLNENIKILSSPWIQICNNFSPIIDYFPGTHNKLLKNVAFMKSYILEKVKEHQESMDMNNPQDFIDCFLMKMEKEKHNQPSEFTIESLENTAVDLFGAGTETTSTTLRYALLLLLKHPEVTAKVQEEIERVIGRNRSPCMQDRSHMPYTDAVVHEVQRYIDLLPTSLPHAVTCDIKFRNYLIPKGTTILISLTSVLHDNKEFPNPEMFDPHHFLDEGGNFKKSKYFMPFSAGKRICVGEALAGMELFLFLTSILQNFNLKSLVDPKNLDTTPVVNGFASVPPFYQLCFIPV

[28] = tested on: HepG2; assay: Cytotoxicity against human HepG2 cells assessed as inhibition of nuclear DNA levels measured on day 14 by RT-PCR method; conditions: HepG2, 336 h
[29] = Cytotoxicity against human PBMC assessed as inhibition of cell proliferation after 5 days by MTT assay; format: cell-based
[30] = tested on: cytochrome c oxidase subunit 2 DNA (mitochondrial DNA) levels; assay: Mitochondrial toxicity in human HepG2 cells assessed as inhibition of cytochrome c oxidase subunit 2 DNA levels at 50 uM measured on day 14 by RT-PCR method relative to nuclear beta-actin DNA levels; format: cell-based
[31] = tested on: Hepatitis C virus; assay: Selectivity ratio of EC90 for HCV genotype 1b harboring NS5B S282T mutant to EC90 for HCV genotype 1b harboring wild type NS5B; format: functional, Hepacivirus hominis
[32] = Cytotoxicity against human primary BMNC cells up to 50 uM measured on day 14; format: cell-based
[33] = tested on: nuclear DNA levels; assay: Cytotoxicity against human HepG2 cells assessed as inhibition of nuclear DNA levels at 50 uM measured on day 14 by RT-PCR method relative to nuclear beta-actin DNA levels; format: cell-based; conditions: read-out: INH
[34] = tested on: Hepatitis C virus; assay: Antiviral activity against HCV genotype 1a infected in human HuH7 cells assessed as inhibition of viral RNA replication after 96 hrs by RT-PCR method; format: functional, cell-based, Hepacivirus hominis; conditions: subtype 1a, Huh-7, 96 h
[35] = Cytotoxicity against African green monkey Vero cells assessed as inhibition of cell proliferation after 3 days by MTT assay; format: cell-based; conditions: chlorocebus sabaeus
[36] = tested on: HepG2; assay: Mitochondrial toxicity in human HepG2 cells assessed as lactic acid production at 10 uM measured on day 14 by spectrophotometric method relative to control; format: cell-based; conditions: hepg2, 10 µM
[37] = Clearance in human intestinal microsomes; format: ADME, Intestine, Microsome
[38] = in vitro; conditions: human, liver microsomes; remark: listed apart in the source
Description: Metabolic stability in human liver microsomes assessed as parent compound remaining at 1 uM at 60 mins by LC-MS/MS analysis

Chain of Cytochrome P450 2D6 (P10635 whole entry): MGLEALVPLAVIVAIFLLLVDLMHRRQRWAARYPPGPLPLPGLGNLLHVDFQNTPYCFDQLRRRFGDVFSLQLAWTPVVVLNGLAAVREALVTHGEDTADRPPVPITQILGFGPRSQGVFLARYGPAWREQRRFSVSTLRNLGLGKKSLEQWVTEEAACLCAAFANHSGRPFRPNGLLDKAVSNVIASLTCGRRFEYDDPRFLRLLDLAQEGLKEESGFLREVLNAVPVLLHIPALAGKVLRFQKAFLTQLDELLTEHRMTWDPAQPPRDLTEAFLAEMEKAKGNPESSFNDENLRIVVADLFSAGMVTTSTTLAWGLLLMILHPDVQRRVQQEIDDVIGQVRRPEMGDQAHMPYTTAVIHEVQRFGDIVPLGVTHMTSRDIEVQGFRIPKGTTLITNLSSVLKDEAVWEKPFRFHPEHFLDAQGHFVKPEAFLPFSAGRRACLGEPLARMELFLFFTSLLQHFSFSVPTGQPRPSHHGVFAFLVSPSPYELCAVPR

## CC(C)OC(=O)[C@H](C)NP(=O)(OC[C@H]1O[C@@H](n2ccc(=O)[nH]c2=O)[C@@](F)(Cl)[C@@H]1O)Oc1ccccc1 (mixture of isomers)
[1]
  IC50: > 100000 nM
[2]
  cytotoxicity at 14 days, 10 µM: < 1%
[3]
  CC50 at 96 h: > 10000 nM
[4]
  fold change (FC): 2.7
[5]
  EC50: 20 to 200 nM
  EC90: 70 to 400 nM
[6]
  half-life at 1 µM: 0.193 h
[7]
  fold change (FC): 2.3
[8]
  IC50: 90 nM
[9]
  Activity: 84%
[10]
  IC50: 150 nM
[11]
  IC50: 50 nM
[12]
  CC50 at 96 h: > 100000 nM
[13]
  inhibition at 14 days, 10 µM: < 1%
[14]
  microsomal CLint at 1 µM: 120 µL/min/mg
[15]
  Activity: 56%
[16]
  IC50: 170 nM
[17]
  IC50: 150 nM
[18]
  EC50: 70 nM
  EC90: 200 nM
[19]
  half-life: 2 h
[20]
  IC50 at 14 days: > 50000 nM
[21]
  IC50: 6800 nM
[22]
  Ratio EC50: 3.5
[23]
  remaining at 2 h, 2 µM: 103%
[24]
  remaining at 1 h: 79%
[25]
  Activity: 130%
[26]
  IC50: > 100000 nM
[27]
  IC50: 25000 nM
[28]
  IC50: > 50000 nM
[29]
  CC50 at 120 h: > 100000 nM
[30]
  inhibition at 14 days, 50 µM: 27%
[31]
  Selectivity ratio: 2.9
[32]
  Activity: Non-Toxic
[33]
  cytotoxicity at 14 days, 50 µM: 13%
[34]
  IC50: 130 nM
[35]
  CC50 at 72 h: > 100000 nM
[36]
  Activity: 60%
[37]
  microsomal CLint: 29 µL/min/mg
[38]
  remaining at 1 h, 1 µM: 4.2%
